Columns and labels:
human p38 MAP kinase = molecular target: T1, human p38 MAP kinase (Homo sapiens, UniProt Q16539); assay: Measurement of the enzyme inhibitory activity of active form p38 MAP kinase (32P uptake into Myelin Basic Protein), Reference Example C1; format: biochemical; conditions: concentration inhibiting uptake of 32P into acid insoluble fraction (Myelin Basic Protein) by 50%, Table 45
T1 construct: FLAG (N); made in house; host or cells: Sf-21 insect cells, baculovirus (BAC-HP38 co-infected with BAC-caMKK3)
Protocol: (1) Cloning of Human p38 MAP Kinase Gene and Preparation of Recombinant Baculovirus
Cloning of human p38 MAP kinase gene was performed by a PCR method using a primer set P38-U: 5′-[…]-3′ [SEQ ID NO:1] and PAG-L: 5′-[…]-3′ [SEQ ID NO:2] made by the use of kidney cDNA (Toyobo, QUICK-Clone cDNA) as a template and referring to the base sequence of p38 MAP kinase gene reported by Han et al. (Science 265 (5173), 808-811 (1994)).
(2) Cloning of Human MKK3 Gene and Preparation of Recombinant Baculovirus
(3) Preparation of Active Form p38 MAP Kinase
The Sf-21 cells were seeded on 100 mL Sf-900II SFM medium (GIBCOBRL) to 1×10^6 cells/mL and cultured at 27° C. for 24 hours. After each 0.2 mL of the virusstock BAC-HP38 and BAC-caMKK3 of recombinant baculovirus were added, the culturing was further performed for 48 hours. After the cells were separated from the culturing solution by centrifugation (3000 rpm, 10 min), the cells were washed twice with PBS. After the cells were suspended in 10 ml Lysis buffer (25 mM HEPES (pH 7.5), 1% Triton X, […], 1 mM EDTA, 1 mM DTT, 25 mM β-glycerophosphate, […], 1 mM APMSF, 1 mM Sodium orthovanadate), the cells were lysed by treating twice in a homogenizer (POLYTRON) at 20000 rpm for 2 minutes. From the supernatant obtained by centrifugation (40000 rpm, 45 minutes), active form p38 MAP kinase was purified using Anti-FLAG M2 Affinity Gel (Eastman Chemical).
(4) Measurement of the Enzyme Inhibitory Activity
2.5 μL of a test compound dissolved in DMSO was added to 37.5 μL reaction solution (25 mM HEPES (pH 7.5), 10 mM Magnesium Acetate) containing 260 ng active form p38 MAP kinase and 1 μg Myelin Basic Protein, which was maintained at 30° C. for 5 minutes. The reaction was initiated by adding […] ATP solution (2.5 μM ATP, 0.1 μCi [g-^32P]ATP). After the reaction was performed at 30° C. for 60 minutes, the reaction was stopped by adding 50 μL 20% TCA solution. After the reaction solution was allowed to stand at 0° C. for 20 minutes, an acid insoluble fraction was transferred to GF/C filter (Packard Japan) using Cell Harvester (Packard Japan) and washed with 250 mM H3PO4. After drying at 45° C. for 60 minutes, 40 μL Microscint 0 (Packard Japan) was added and the radioactivity was measured with a TopCount (Packard Japan). The concentration (IC50 value) of the test compound necessary for inhibiting uptake of ^32P into an acid insoluble fraction by 50% was calculated with PRISM 2.01 (Graphpad Software).

[1] = tested on: TNF-α production in THP-1 cells; assay: Measurement of inhibiting activity of TNF-α production in LPS-stimulated THP-1 cells (ELISA), Reference Example F3; format: cell-based; conditions: Homo sapiens, LPS 5 μg/mL, 4 hours, read-out: IC50 (concentration necessary for inhibiting TNF-α production by 50%)
Protocol: (§1) Measurement of inhibiting activity of TNF-α production
After THP-1 cells which had been cultured in PRMI 1640 medium (manufactured by Life Technologies, Inc.) containing 1% non-activated bovine fetal serum (manufactured by Life Technologies, Inc., U.S.A.) and 10 mM HEPES (pH 7.5) seeded on a 96-well plate to 1×10^5 cells/well, 1 μL test compound dissolved in DMSO was added to there. After incubation at 37° C. for 1 hour in a CO2 incubator, LPS (Wako Pure Chemicals) was added to the final concentration 5 μg/mL. After cultured at 37° C. for 4 hours in a CO2 incubator, the supernatant was obtained by centrifugation. The concentration of TNF-α in the supernatant was measured with ELISA (R&D System, Quantikine Kit). The concentration (IC50 value) necessary for inhibiting TNF-α production by 50% was calculated by PRIMS 2.01 (Graphpad Software).

[2] = tested on: TNF-α production in THP-1 cells; assay: Measurement of inhibiting activity of TNF-α production in LPS-stimulated THP-1 cells (ELISA), Experimental Example C2; format: cell-based; conditions: Homo sapiens, concentration inhibiting TNF-α production by 50%, LPS 5 μg/mL, 4 hour, Table 46
Protocol: as §1
After THP-1 cells which had been cultured on PRMI 1640 medium (manufactured by Life Technologies, Inc.) containing 1% inactivated bovine fetal serum (manufactured by Life Technologies, Inc., U.S.A.) and 10 mM HEPES (pH 7.5) seeded on a 96-well plate to 1×10^5 cells/well, 1 μL test compound dissolved in DMSO was added. After incubation at 37° C. for 1 hour in a CO2 incubator, LPS (Wako Pure Chemicals) was added to the final concentration 5 μg/mL. After cultured at 37° C. for 4 hour in a CO2 incubator, the supernatant was obtained by centrifugation. The concentration of TNF-α in the supernatant was measured by ELISA (R&D Systems, Quantikine Kit). The concentration (IC50 value) of the test compound necessary for inhibiting TNF-α production by 50% was calculated using PRIMS 2.01 (Graphpad Software).

T1 sequence (Q16539 whole entry): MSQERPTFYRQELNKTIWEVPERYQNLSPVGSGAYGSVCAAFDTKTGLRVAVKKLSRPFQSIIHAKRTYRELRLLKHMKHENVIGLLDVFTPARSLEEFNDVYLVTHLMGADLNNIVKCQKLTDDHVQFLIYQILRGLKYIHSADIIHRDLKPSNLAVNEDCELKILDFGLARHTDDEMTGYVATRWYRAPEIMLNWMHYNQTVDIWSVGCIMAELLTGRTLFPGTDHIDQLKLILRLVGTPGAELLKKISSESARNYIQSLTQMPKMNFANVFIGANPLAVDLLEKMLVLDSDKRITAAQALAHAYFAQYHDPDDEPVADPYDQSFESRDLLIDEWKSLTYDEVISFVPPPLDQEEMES

Compound | IC50 (human p38 MAP kinase) [nM] | melting point [°C] | also measured
Cc1cc(C)cc(-c2nc(N)sc2-c2ccnc(NC(=O)c3ccccc3)c2)c1 [compound 5] | – | – | IC50 [1]: 20 nM
COc1ccc(-c2nc(N)sc2-c2cccnc2)cc1 [Reference Example A 8, [4-(4-methoxyphenyl)-5-(3-pyridyl)-1,3-thiazol-2-yl]amine] | – | 265 to 266 | –
Cc1cccc(-c2nc(-c3ccc(S(C)(=O)=O)cc3)sc2-c2ccnc(S(=O)(=O)c3ccccc3)c2)c1 [Reference Example D 28, 4-(3-methylphenyl)-2-(4-methylsulfonylphenyl)-5-(2-phenylsulfonyl-4-pyridyl)-1,3-thiazole] | – | 90 to 91 | –
CNc1nc(-c2ccc(OC)cc2)c(-c2cccnc2)s1 [Reference Example A 9, N-methyl [4-(4-methoxyphenyl)-5-(3-pyridyl)-1,3-thiazol-2-yl]amine] | – | 158 to 159 | –
COc1ccc(-c2nc(N)sc2-c2cccnc2)cc1.Cl | – | 145 to 150 | –
Cc1cccc(-c2nc(N)sc2-c2ccncc2)c1 [23-60, [4-(3-methylphenyl)-5-(4-pyridyl)-1,3-thiazol-2-yl]amine] | – | – | IC50 [2]: 46 nM

Now from value to molecule, other results behind:

IC50 (human p38 MAP kinase) [nM] | melting point [°C] | Compound | also measured
60 | – | CNc1nc(-c2ccc(OC)cc2)c(-c2ccncc2)s1 [13-16, N-methyl [4-(4-methoxyphenyl)-5-(4-pyridyl)-1,3-thiazol-2-yl]amine] | –
– | 135 to 137 | Fc1ccc(-c2nc(-c3ccccc3)sc2-c2ccncc2)cc1 [44-1, 4-(4-fluorophenyl)-2-phenyl-5-(4-pyridyl)-1,3-thiazole] | –
86 | – | COc1ccc(-c2nc(N)sc2-c2ccncc2)cc1 [13-14, [4-(4-methoxyphenyl)-5-(4-pyridyl)-1,3-thiazol-2-yl]amine] | –
26 | – | CNc1nc(-c2ccc(Cl)cc2)c(-c2ccncc2)s1 [13-70, N-methyl [4-(4-chlorophenyl)-5-(4-pyridyl)-1,3-thiazol-2-yl]amine] | –
81 | – | Nc1nc(-c2ccccc2)c(-c2ccncc2)s1 [13-15, [4-phenyl-5-(4-pyridyl)-1,3-thiazol-2-yl]amine] | –

From patent publication US20040097555A1, “Concomitant drugs” (priority 2000, published 2004)
